These compounds were tested on HMPV clinical isolate A2 strain TN 94-49 (assay: HMPV antiviral assay, Method 1 (LLC-MK2 cells, ATP-Lite)). Conditions: human metapneumovirus, hMPV A2 TN/94-49, LLC-MK2 cells.
Assay type: cell-based
Experimental: In vitro HMPV antiviral activity was evaluated using the clinical isolate A2 strain TN 94-49 (obtained from Dr. John Williams, Vanderbilt University, Tennessee) and LLC-MK2 cells (ATCC #CCL-7), an immortalized kidney epithelial cell line from Macaca mulatta. Compounds were resuspended in dimethyl sulfoxide (DMSO) at 10 mM, serially diluted and added to a 384-well source plate. Subsequently, the compounds were diluted and transferred onto 384-well assay plates using the Echo-650 automated liquid handling system (Beckman Coulter, Indiana). The test compounds were assessed in duplicate at a top concentration of 2 μM followed by 2.5-fold serial dilutions to give a total of 10 concentration points. DMSO control wells were also included on the assay plates and were either infected or not, acting as positive and negative controls. A2 TN 94-49 virus infections were performed in-suspension with LLC-MK2 cells. The cells were washed twice with PBS and removed from the cell-culture flask with 0.25% trypsin-EDTA (Thermo Fisher Scientific, MA). The trypsin-EDTA was inactivated by resuspending in 2% fetal bovine serum (FBS) and OptiMEM (ThermoFisher Scientific, MA) containing 1% penicillin-streptomycin. Cells were pelleted by centrifuging for 5 minutes at 800 rpm, the supernatant was removed, and cells were re-suspended and washed in PBS plus 100 μg/mL CaCl2). This step was performed twice. Cells were then re-suspended in serum-free (SF)-OptiMEM containing 4 μg/mL TPCK-Trypsin (Sigma Aldrich, MO), 1% penicillin-streptomycin (ThermoFisher Scientific, MA) and 100 μg/mL CaCl2). Cells were counted and seeded at a density of 5,000 cells/well, 12.5 μL/well. Virus infections were done at a multiplicity of infection (MOI) of 0.005 with 12.5 μL added per well. Virus infections were performed in infection media which contained SF-OptiMEM, 100 μg/mL CaCl2) and 1% penicillin-streptomycin. HMPV viral stocks are suspended in infection media+5% glycerol, thus an equal volume of infection media+5% glycerol was added to uninfected wells to equalize the final % glycerol across all wells of the assay plate. The final concentration of TPCK-trypsin was 2 μg/mL. The assay plates were incubated at 37° C., 5% CO2 for 7 days. After 7 days incubation, 12.5 μL of ATP-Lite (PerkinElmer, MA) was added to each well and the raw luminescence values were determined using the Envision 2104 (Perkin Elmer, MA). The average of the raw luminescence values for the cells and virus only positive control wells was subtracted from all conditions tested and the percent cell health was determined by dividing these values by the average of the cells only negative control wells. EC50 values were then calculated by non-linear regression using a four-parameter curve logistic equation. The curve fit model employed was XLFit Dose Response One Site Model 200: y=(A+(B/(1+((x/C)^D)))), where A is the minimum y value, B is the maximum y value, C is the log EC50 value, and D is the slope factor.

EC50, > 500 nM:
COc1cc(C(=O)NC[C@](O)(c2cc3c(c(-c4cc(Cl)c(F)cc4F)n2)OC[C@]3(C)C(N)=O)C2CC2)cc2cc(C(F)(F)F)cnc12 [Example 1]
[2H]C([2H])([2H])c1nc2c(OC(F)F)cc(C(=O)NC[C@](O)(c3cc4c(c(-c5cc(Cl)c(F)cc5F)n3)OC[C@]4(C)C(N)=O)C3CC3)cc2cc1Br [Example 11]
[2H]C([2H])([2H])c1cc2cc(C(=O)NC[C@](O)(c3cc4c(c(-c5ccc(F)c(Cl)c5)n3)OC[C@]4(C)C(N)=O)C(F)(F)F)cc(OC)c2nc1C [Example 20]
COc1cc(C(=O)NC[C@@](O)(c2ccc(F)cc2)c2cc3c(c(-c4ccc5c(c4Cl)OC(F)(F)O5)n2)OC[C@]3(C)C(N)=O)cc2cc(C(F)(F)F)cnc12 [Example 26]
COc1cc(C(=O)NC[C@](O)(c2cc3c(c(-c4cccc(SC(F)(F)F)c4)n2)OC[C@]3(C)C(N)=O)C2CC2)cc2cn(C3CC3)nc12 [Example 36]
COc1cc(C(=O)NC[C@](O)(c2cc3c(c(-c4cc(F)c(F)cc4F)n2)OC[C@]3(C)C(N)=O)C2CC2)cc2cc(C(F)(F)F)cnc12 [Example 46]
COc1cc(C(=O)NC[C@](O)(c2cc3c(c(-c4cc(Cl)cc(C)c4F)n2)OC[C@]3(C)C(N)=O)C2CC2)cc2cn(C3CC3)nc12 [Example 47]
COc1cc(C(=O)NC[C@](O)(c2cc3c(c(-c4ccc5ccsc5c4)n2)OC[C@]3(C)C(N)=O)C2CC2)cc2cn(C3CC3)nc12 [Example 48]
COc1cc(C(=O)NC[C@](O)(c2cc3c(c(-c4cc(C)cc(F)c4F)n2)OC[C@]3(C)C(N)=O)C2CC2)cc2cn(C3CC3)nc12 [Example 49]
COc1cc(C(=O)NC[C@](O)(c2cc3c(c(-c4cc(Cl)c(C)cc4F)n2)OC[C@]3(C)C(N)=O)C2CC2)cc2cn(C3CC3)nc12 [Example 51]
COc1cc(C(=O)NC[C@](O)(c2cc3c(c(-c4ccc5c(c4Cl)OC(F)(F)O5)n2)OC[C@]3(C)C(N)=O)C(F)(F)F)cc2cn(C3CC3)nc12 [Example 52]
COc1cc(C(=O)NC[C@](O)(c2cc3c(c(-c4cccc(S(F)(F)(F)(F)F)c4)n2)OC[C@]3(C)C(N)=O)C(F)(F)F)cc2cn(C3CC3)nc12 [Example 54]
COc1cc(C(=O)NC[C@](O)(c2cc3c(c(-c4ccc(C(F)(F)F)c(C)c4)n2)OC[C@]3(C)C(N)=O)C2CC2)cc2cn(C3CC3)nc12 [Example 55]
COc1cc(C(=O)NC[C@](O)(c2cc3c(c(-c4ccc(C)c(C(F)(F)F)c4)n2)OC[C@]3(C)C(N)=O)C2CC2)cc2cn(C3CC3)nc12 [Example 56]
COc1cc(C(=O)NC[C@@](O)(c2cc3c(c(-c4cc(F)c(F)c(F)c4Cl)n2)OC[C@]3(C)C(N)=O)C(F)(F)F)cc2cn(C3CC3)nc12 [Example 58]
COc1cc(C(=O)NC[C@](O)(c2cc3c(c(-c4cc(Cl)c(Cl)cc4Cl)n2)OC[C@]3(C)C(N)=O)C2CC2)cc2cn(C3CC3)nc12 [Example 62]
COc1cc(C(=O)NC[C@](O)(c2cc3c(c(-c4ccc(F)cc4O)n2)OC[C@]3(C)C(N)=O)C2CC2)cc2cn(C3CC3)nc12 [Example 63]
COc1cc(C(=O)NC[C@@](O)(c2cc3c(c(-c4ccc(F)cc4O)n2)OC[C@]3(C)C(N)=O)C2CC2)cc2cn(C3CC3)nc12 [Example 64]
COc1cc(F)ccc1-c1nc([C@@](O)(CNC(=O)c2cc(OC)c3nn(C4CC4)cc3c2)C2CC2)cc2c1OC[C@]2(C)C(N)=O [Example 67]

EC50, < 500 nM:
C[C@]1(C(N)=O)COc2c1cc([C@@](O)(CNC(=O)c1cc(OC3CC3)c3nn(C4CC4)cc3c1)C1CC1)nc2-c1cc(Cl)c(F)cc1F [Example 2]
C[C@]1(C(N)=O)COc2c1cc([C@@](O)(CNC(=O)c1cc(OC(F)F)c3nn(C4CC4)cc3c1)C1CC1)nc2-c1cc(F)c(F)cc1F [Example 6]
[2H]C([2H])([2H])c1nc2c(OC)cc(C(=O)NC[C@](O)(c3cc4c(c(-c5cc(F)c(F)cc5F)n3)OC[C@]4(C)C(N)=O)C3CC3)cc2cc1Br [Example 7]
[2H]C([2H])([2H])c1nc2c(OC)cc(C(=O)NC[C@@](O)(c3ccccc3)c3cc4c(c(-c5ccc6c(c5)OC(F)(F)O6)n3)OC[C@]4(C)C(N)=O)cc2s1 [Example 9]
[2H]C([2H])([2H])c1nc2c(OC)cc(C(=O)NC[C@](O)(c3cc4c(c(-c5cc(Cl)c(F)cc5F)n3)OC[C@]4(C)C(N)=O)C3CC3)cc2s1 [Example 10]
COc1cc(C(=O)NC[C@@](O)(c2ccc(F)cc2)c2cc3c(c(-c4cc(Cl)c(F)cc4F)n2)OC[C@]3(C)C(N)=O)cc2cn(C(F)F)nc12 [Example 13]
[2H]C([2H])([2H])c1nc2c(OC)cc(C(=O)NC[C@@](O)(c3ccc(F)cc3)c3cc4c(c(-c5cc(Cl)c(F)cc5F)n3)OC[C@]4(C)C(N)=O)cc2s1 [Example 16]
COc1cc(C(=O)NC[C@@](O)(c2ccc(F)cc2)c2cc3c(c(-c4cc(Cl)c(F)cc4F)n2)OC[C@]3(C)C(N)=O)cc2cc(Cl)c(C)nc12 [Example 17]
[2H]C([2H])([2H])c1nc2c(OC)cc(C(=O)NC[C@](O)(c3cc4c(c(-c5ccc(F)c(Cl)c5Cl)n3)OC[C@]4(C)C(N)=O)C3CC3)cc2cc1Br [Example 24]
[2H]C([2H])([2H])c1nc2c(OC)cc(C(=O)NC[C@@](O)(c3ccc(F)cc3)c3cc4c(c(-c5ccc6c(c5Cl)OC(F)(F)O6)n3)OC[C@]4(C)C(N)=O)cc2s1 [Example 27]
[2H]C([2H])([2H])c1cc2cc(C(=O)NC[C@](O)(c3cc4c(c(-c5cc(F)c(F)cc5F)n3)OC[C@]4(C)C(N)=O)C3CC3)cc(OC)c2nc1C([2H])([2H])[2H] [Example 28]
[2H]C([2H])([2H])c1cc2cc(C(=O)NC[C@](O)(c3cc4c(c(-c5cc(Cl)c(F)cc5F)n3)OC[C@]4(C)C(N)=O)C3CC3)cc(OC)c2nc1C([2H])([2H])[2H] [Example 29]
[2H]c1nc2c(OC)cc(C(=O)NC[C@](O)(c3cc4c(c(-c5cc(F)c(F)cc5F)n3)OC[C@]4(C)C(N)=O)C3CC3)cc2cc1Br [Example 30]
COc1cc(C(=O)NC[C@](O)(c2cc3c(c(-c4cc(F)c(F)cc4F)n2)OC[C@]3(C)C(N)=O)C2CC(F)(F)C2)cc2cn(C3CC3)nc12 [Example 31]
C[C@]1(C(N)=O)COc2c1cc([C@@](O)(CNC(=O)c1cc(Cl)c3nn(C4CC4)cc3c1)C1CC1)nc2-c1ccc2c(c1Cl)OC(F)(F)O2 [Example 35]
C[C@]1(C(N)=O)COc2c1cc([C@@](O)(CNC(=O)c1cc(OC(F)F)c3nn(C4CC4)cc3c1)C1CC1)nc2-c1ccc(F)c(F)c1Cl [Example 39]
C[C@]1(C(N)=O)COc2c1cc([C@@](O)(CNC(=O)c1cc(OC(F)F)c3nn(C4CC4)cc3c1)C1CC1)nc2-c1ccc(F)c(Cl)c1F [Example 40]
COc1cc(C(=O)NC[C@@](O)(c2ccc(F)cc2)c2cc3c(c(-c4ccc(F)c(Cl)c4Cl)n2)OC[C@]3(C)C(N)=O)cc2cn(C(F)F)nc12 [Example 42]
COc1cc(C(=O)NC[C@@](O)(c2ccc(F)cc2)c2cc3c(c(-c4ccc(F)c(Cl)c4Cl)n2)OC[C@]3(C)C(N)=O)cc2cc(Cl)c(C)nc12 [Example 44]
COc1cc(C(=O)NC[C@@](O)(c2ccc(F)cc2)c2cc3c(c(-c4ccc(F)c(Cl)c4Cl)n2)OC[C@]3(C)C(N)=O)cc2cc(C3CC3)nn12 [Example 45]
COc1cc(C(=O)NC[C@](O)(c2cc3c(c(-c4cc(C(F)(F)F)ccc4C)n2)OC[C@]3(C)C(N)=O)C2CC2)cc2cn(C3CC3)nc12 [Example 53]
COc1cc(C(=O)NC[C@](O)(c2cc3c(c(-c4cc(F)c(F)c(F)c4Cl)n2)OC[C@]3(C)C(N)=O)C(F)(F)F)cc2cn(C3CC3)nc12 [Example 59]
COc1cc(C(=O)NC[C@](O)(c2cc3c(c(-c4ccc(Cl)c(Cl)c4Cl)n2)OC[C@]3(C)C(N)=O)C2CC2)cc2cn(C3CC3)nc12 [Example 60]
COc1cc(C(=O)NC[C@](O)(c2cc3c(c(-c4cc(Cl)cc(Cl)c4Cl)n2)OC[C@]3(C)C(N)=O)C2CC2)cc2cn(C3CC3)nc12 [Example 61]

— patent US20240368174A1, “Antiviral Heterocyclic Compounds” (Enanta Pharmaceuticals, Inc., priority 2023, published 2024)
